In patent US9192611B2, “Formulations comprising methylthioninium chloride” (WisTa Laboratories Ltd., priority 2010, dated 2015):

Key:
[1] = background statement; cited from earlier work
[2] = Thermodynamic stability of MTC hydrates as a function of RH and temperature; conditions: any T and RH; kinetically stable in a certain range

Compound	RH down to which high kinetic stability is observed [1]	Thermodynamic stability, in words [2]
CN(C)c1ccc2nc3ccc(=[N+](C)C)cc-3sc2c1 [Form A, Methylthioninium chloride]	less than 20%	–
CN(C)c1ccc2nc3ccc(=[N+](C)C)cc-3sc2c1 [Form B, Methylthioninium chloride]	–	not thermodynamically stable
